Where two headings read alike, the source gives them in different places.
How the values were obtained:
[1] = test system: HIV-1 reverse transcriptase (RT) activity in chronically infected CEM cells; conditions: chronically infected human T lymphocytes such as CEM; general statement without data; cited from earlier work
[2] = test system: HIV-1 (HTLVIIIB or HTLVIIIMN strains) in H9 cells; experiment: HIV p24 antigen capture assay, acute infection of H9 cells; format: cell-based; conditions: Human immunodeficiency virus 1, H9, Expt. 1
Source text: After infection, unabsorbed virions are removed by washing.

[3] = test system: HIV-1 (HTLVIIIB) in H9 cells; experiment: Long term infection assay, p24 expression in H9 cells (antigen capture); format: cell-based; conditions: for inhibition at 0.05 µM: read-out: % inhibition of p24 compared with control

SMILES	inhibition of HIV replication in chronically infected cells (in words) [1]	inhibition at 0.005 µM ([2]; AZT 0.0016 μg/ml (0.005 μM))	inhibition at 0.02 µM ([2]; AZT 0.008 μg/ml (0.02 μM))	inhibition at 0.1 µM ([2]; AZT 0.04 μg/ml (0.1 μM))	inhibition at 0.6 µM ([2]; AZT 0.2 μg/ml (0.6 μM))	inhibition at 0.05 µM ([3]; Human immunodeficiency virus 1, H9, 72 h, day 3, 25mer 0.60 μM, ddC 0.05 μM)	inhibition at 0.05 µM ([3]; Human immunodeficiency virus 1, H9, 168 h, day 7, 25mer 0.60 μM, ddC 0.05 μM)	inhibition at 0.05 µM ([3]; Human immunodeficiency virus 1, H9, 240 h, day 10, 25mer 0.60 μM, ddC 0.05 μM)	inhibition at 0.05 µM ([3]; Human immunodeficiency virus 1, H9, 336 h, day 14, 25mer 0.60 μM, ddC 0.05 μM)	inhibition at 0.05 µM ([3]; Human immunodeficiency virus 1, H9, 408 h, day 17, 25mer 0.60 μM, ddC 0.05 μM)	p24 expression ([3]; day 3, 25mer 0.60 μM, ddC 0.05 μM, control 489)	p24 expression (pg/ml) ([3]; day 7, 25mer 0.60 μM, ddC 0.05 μM, control 188,800)	p24 expression (pg/ml) ([3]; day 10, 25mer 0.60 μM, ddC 0.05 μM, control 210,400)	p24 expression (pg/ml) ([3]; day 14, 25mer 0.60 μM, ddC 0.05 μM, control 130,400)	p24 expression (pg/ml) ([3]; day 17, 25mer 0.60 μM, ddC 0.05 μM, control 95,600)	long term inhibition of p24 expression (in words) ([3]; long term culture, up to day 17)
Cc1cn([C@H]2C[C@H](N=[N+]=[N-])[C@@H](CO)O2)c(=O)[nH]c1=O [AZT, 3'-azido-3'-deoxythymidine]	do not inhibit HIV replication	6%	44%	73%	90%											
Nc1ccn([C@H]2CC[C@@H](CO)O2)c(=O)n1 [ddC, dideoxycytosine]	do not inhibit HIV replication					75%	94%	91%	56%	44%	124 pg/mL	10,800 pg/ml	17,300 pg/ml	60,000 pg/ml	54,000 pg/ml	ineffectiveness of ddC

Reference: US5684147A, “Therapeutic anti-HIV anti-viral oligonucleotides and pharmaceutical formulations thereof” (Hybridon, Inc., priority 1994, dated 1997)
